What was measured:
hERG = hERG (Homo sapiens, UniProt Q12809); assay: hERG assay: block of rubidium ion (Rb+) efflux from cells expressing hERG; details: for Blocking of hERG channel compared with PRC200-SS: in words
Experimental: Human “ether-a-go-go” (hERG) is an ion channel. Blockade of this channel can be predictive of causing cardiac arrhythmias in humans. hERG assays were performed to measure the ability of a compound to block rubidium ion (Rb^+) efflux from cells expressing hERG. Cells were pre-loaded with Rb^+, incubated with test compound, and then exposed to a buffer that opens the channel and allows the efflux of ions. Compounds as powder were dissolved in 100% DMSO to prepare 100 mM stock solutions. […] The stocks were stored at 23° C.
The range of doses for the test compounds was 30 nM through 100,000 nM.

mice = assay: Locomotor activity in motility chamber, mice; assay type: in vivo, mouse; details: doses that exhibited positive effects in the TST, FIG. 11
mouse NET = biological target: T1, mouse NET (Mus musculus, UniProt O55192); assay: Competition binding against [3H]nisoxetine, mouse hippocampus tissue; details: mouse brain tissue (hippocampus), FIG. 10F vs Table 2
T1 construct: from tissue; host or cells: mouse hippocampus
T1 sequence (O55192 whole entry): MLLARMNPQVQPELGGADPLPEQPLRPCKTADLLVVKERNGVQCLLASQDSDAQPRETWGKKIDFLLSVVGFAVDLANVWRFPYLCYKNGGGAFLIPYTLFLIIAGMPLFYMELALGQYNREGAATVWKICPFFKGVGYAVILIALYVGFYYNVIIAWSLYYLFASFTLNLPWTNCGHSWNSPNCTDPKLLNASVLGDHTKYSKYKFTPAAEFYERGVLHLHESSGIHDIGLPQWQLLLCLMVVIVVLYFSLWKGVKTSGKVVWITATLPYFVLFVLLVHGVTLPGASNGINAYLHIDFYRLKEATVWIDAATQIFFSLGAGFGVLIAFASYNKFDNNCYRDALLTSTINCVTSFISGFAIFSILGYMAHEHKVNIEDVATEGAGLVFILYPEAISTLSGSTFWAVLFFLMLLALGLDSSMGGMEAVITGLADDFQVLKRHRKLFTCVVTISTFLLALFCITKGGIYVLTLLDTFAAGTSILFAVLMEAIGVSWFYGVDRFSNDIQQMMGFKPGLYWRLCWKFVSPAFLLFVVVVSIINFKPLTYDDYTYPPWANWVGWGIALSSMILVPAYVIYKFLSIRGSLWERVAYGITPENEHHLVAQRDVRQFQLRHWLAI
Experimental: (§1) FIGS. 10A-D contain graphs plotting activity levels (counts/6 minutes) for mice treated with the indicated compound at the indicated amount. […] Each group of mice included between three and seven mice. FIGS. 10F is a line graph plotting the competition binding of the indicated compound against [^3H]nisoxetine for mouse hippocampus tissue. FIGS. 10G is a line graph plotting the competition binding of the indicated compound against [^3H]citalopram for mouse cortex tissue. FIG. 10H is a bar graph plotting the duration of immobility (seconds) during a tail suspension test of mice intraperitoneally (ip) or per os (po; orally) treated with 5 mg/kg of the indicated compound. […] Each group of mice included between seven and nine mice.

mouse SERT = biological target: T2, mouse SERT (Mus musculus, UniProt Q60857); assay: Competition binding against [3H]citalopram, mouse cortex tissue; details: mouse brain tissue (cortex), FIG. 10G vs Table 2
T2 construct: from tissue; host or cells: mouse cortex
T2 sequence (Q60857 whole entry): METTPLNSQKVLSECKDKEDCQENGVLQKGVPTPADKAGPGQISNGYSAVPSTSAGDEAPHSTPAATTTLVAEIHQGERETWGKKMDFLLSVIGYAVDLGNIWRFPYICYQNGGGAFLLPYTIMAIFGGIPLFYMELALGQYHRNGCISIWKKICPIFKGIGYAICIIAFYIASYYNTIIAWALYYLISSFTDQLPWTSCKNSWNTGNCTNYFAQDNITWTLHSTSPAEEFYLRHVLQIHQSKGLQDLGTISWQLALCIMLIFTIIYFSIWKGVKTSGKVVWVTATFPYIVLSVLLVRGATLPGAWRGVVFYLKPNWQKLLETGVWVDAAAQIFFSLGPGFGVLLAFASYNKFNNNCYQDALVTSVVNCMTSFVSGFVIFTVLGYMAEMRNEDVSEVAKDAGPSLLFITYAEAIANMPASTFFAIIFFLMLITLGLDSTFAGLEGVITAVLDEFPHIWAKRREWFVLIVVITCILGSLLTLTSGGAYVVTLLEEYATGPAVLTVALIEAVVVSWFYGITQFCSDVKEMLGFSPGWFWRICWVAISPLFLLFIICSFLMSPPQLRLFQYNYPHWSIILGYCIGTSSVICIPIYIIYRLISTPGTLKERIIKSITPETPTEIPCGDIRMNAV
Experimental: as §1

hERG, sequence (Q12809 whole entry): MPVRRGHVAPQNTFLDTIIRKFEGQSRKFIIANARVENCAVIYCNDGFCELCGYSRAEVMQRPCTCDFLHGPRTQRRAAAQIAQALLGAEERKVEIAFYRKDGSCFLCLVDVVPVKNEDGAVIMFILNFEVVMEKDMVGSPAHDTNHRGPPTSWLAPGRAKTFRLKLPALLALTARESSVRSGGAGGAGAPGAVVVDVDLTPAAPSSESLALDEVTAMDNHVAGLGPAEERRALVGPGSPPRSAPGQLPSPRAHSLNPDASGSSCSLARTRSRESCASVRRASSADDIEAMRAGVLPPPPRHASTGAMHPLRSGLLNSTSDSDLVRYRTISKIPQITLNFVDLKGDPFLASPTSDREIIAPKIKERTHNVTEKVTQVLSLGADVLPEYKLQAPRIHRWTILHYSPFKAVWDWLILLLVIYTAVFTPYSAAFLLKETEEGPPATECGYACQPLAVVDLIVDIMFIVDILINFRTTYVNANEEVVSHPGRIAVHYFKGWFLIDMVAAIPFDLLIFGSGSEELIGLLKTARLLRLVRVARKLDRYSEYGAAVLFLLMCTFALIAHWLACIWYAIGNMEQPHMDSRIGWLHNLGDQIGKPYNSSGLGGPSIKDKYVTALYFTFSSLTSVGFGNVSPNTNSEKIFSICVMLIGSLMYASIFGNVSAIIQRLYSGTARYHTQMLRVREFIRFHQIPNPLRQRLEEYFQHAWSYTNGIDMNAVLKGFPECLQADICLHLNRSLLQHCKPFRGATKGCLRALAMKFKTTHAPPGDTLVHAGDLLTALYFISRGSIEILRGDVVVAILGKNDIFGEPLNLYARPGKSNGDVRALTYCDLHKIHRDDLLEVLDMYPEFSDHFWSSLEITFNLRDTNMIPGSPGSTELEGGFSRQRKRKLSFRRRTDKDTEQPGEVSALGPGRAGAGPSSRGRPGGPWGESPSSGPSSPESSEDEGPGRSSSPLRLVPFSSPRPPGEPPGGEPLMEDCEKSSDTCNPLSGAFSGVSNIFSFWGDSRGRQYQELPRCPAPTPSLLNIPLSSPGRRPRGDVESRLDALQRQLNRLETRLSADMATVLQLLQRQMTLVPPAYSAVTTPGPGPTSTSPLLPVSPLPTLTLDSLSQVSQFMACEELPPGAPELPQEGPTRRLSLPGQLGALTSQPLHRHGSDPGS

Structure (SMILES)	IC50 (hERG)	Blocking of hERG channel compared with PRC200-SS (hERG)	Effect on locomotor activity (mice)	Potency at mouse NET as compared to potency at human NET (mouse NET)	Potency at mouse SERT as compared to human SERT (mouse SERT)
CNC[C@H](c1ccc2ccccc2c1)[C@@H](F)c1ccccc1 [MCJ001-F-RS, (2S,3R)-3-fluoro-N-methyl-2-(naphthalen-2-yl)-3-phenylpropan-1-amine]	92.4 µM	weaker than PRC200-SS at blocking this channel	Only d-amphetamine caused a significant effect on locomotor activity		
CNC[C@@H](c1ccc2ccccc2c1)[C@H](F)c1ccccc1 [MCJ001-F-SR, (2R,3S)-3-fluoro-N-methyl-2-(naphthalen-2-yl)-3-phenylpropan-1-amine]	94 µM	weaker than PRC200-SS at blocking this channel			
CNC[C@H](c1ccc2ccccc2c1)[C@@H](N=[N+]=[N-])c1ccccc1 [MCJ001-N3-RS, (2S,3R)-3-azido-N-methyl-2-(naphthalen-2-yl)-3-phenylpropan-1-amine]	39.2 µM				
CNC[C@H](c1ccc2ccccc2c1)[C@H](OC)c1ccccc1 [MCJ001-OMe-SS, (2S,3S)-3-methoxy-N-methyl-2-(naphthalen-2-yl)-3-phenylpropan-1-amine]			Only d-amphetamine caused a significant effect on locomotor activity		
CN(C)C[C@H](c1ccc2ccccc2c1)[C@H](N)c1ccccc1 [MCJ002-NH2-SS, (2S,3S)-N1,N1-dimethyl-2-(naphthalen-2-yl)-3-phenylpropane-1,3-diamine]	67.9 µM			10 fold weaker	about the same potency at mouse SERT
